The results in this text go back to US20050113450A1, “Antibacterial agents” (priority 2002, published 2005).

The assay relates to SA 9218. The assay is described as follows: MIC by standard agar dilution method. It is filed as cell-based. The conditions noted are these: Mueller Hinton agar, 10^4 to 10^5 cells per spot, incubated overnight at 35° C., lowest concentration that inhibits visible growth. The essentials:
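MIC read after overnight 35 °C incubation as lowest drug level preventing visible growth. Inoculum of roughly 10^4–10^5 cells per spot (0.5 McFarland, 1:20 in TSB) applied to Mueller Hinton agar containing serial 2-fold compound dilutions.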
(In agar dilution, organisms are placed on agar that contains the substance at set levels.)

The structures appear in SMILES notation. Converted amounts (≈) assume the structure as drawn.

For orientation: MIC means the lowest concentration found to suppress growth. Lower therefore signals greater potency. Turning to `CCCCCC(=O)NCc1ccc(C(=O)Nc2ccc(C#N)cc2C(=O)O)cc1S(=O)(=O)N1CCc2ccccc21` [PHA-738531], the lowest concentration to inhibit growth (MIC) was 64 µg/mL (≈ 111 µM).

`COc1ccc2c(ccn2S(=O)(=O)c2cccc(C(=O)Nc3ccc(C#N)cc3C(=O)O)c2)c1` [PHA-543139] had an MIC of 0.125 µg/mL (≈ 0.263 µM).

Molecule `O=C(Nc1ccc(Br)cc1C(=O)O)c1ccc(C(=O)c2ccccc2)cc1` [PHA-520447] yielded an MIC of 1 µg/mL (≈ 2.36 µM).

Regarding `O=Cc1ccc(C(=O)Nc2ccc(Br)cc2C(=O)O)cc1`, the MIC is > 128 µg/mL. Same read-out and setting: the figure for `Cc1cccc(C(=O)Nc2ccc(Br)cc2C(=O)O)c1` is 64 µg/mL (≈ 192 µM).

`COc1ccc(C(=O)Nc2ccc(Br)cc2C(=O)O)cc1S(=O)(=O)NC1Cc2ccccc2C1` returned an MIC of 2 µg/mL (≈ 3.67 µM). On the same count and under the same terms, the figure for `CCN(CC)c1ccc(C(=O)Nc2ccc(C#N)cc2C(=O)O)cc1` is 16 µg/mL (≈ 47.4 µM). `O=C(Nc1ccc(Cl)cc1C(=O)O)c1cccc(C(=O)c2ccccc2)c1` [drawing 1011] registered an MIC of 4 µg/mL (≈ 10.5 µM). In the case of `CC(C(O)c1ccccc1)N(C)S(=O)(=O)c1ccc(C(=O)Nc2ccc(C#N)cc2C(=O)O)cc1` (stereo not drawn) [PHA-571183], the “SA 9218 MIC” value worked out at 32 µg/mL.

`CCN(Cc1ccncc1)S(=O)(=O)c1ccc(C(=O)Nc2ccc(Br)cc2C(=O)O)cc1` displayed an MIC of 32 µg/mL (≈ 61.7 µM). The molecule `C[C@H](c1ccccc1)N(C)S(=O)(=O)c1cccc(C(=O)Nc2ccc(C#N)cc2C(=O)O)c1` [PHA-562862] gave an MIC of 4 µg/mL (≈ 8.63 µM). For `CCCC(Oc1ccc(C(=O)Nc2ccc(Br)cc2C(=O)O)cc1)C(=O)OCC` (stereo not drawn) [drawing 1052], the “SA 9218 MIC” value is 64 µg/mL.

On to `O=C(Nc1ccc(-c2ccccc2)cc1C(=O)O)c1cccc(S(=O)(=O)N2CCOCC2)c1` [PHA-610942], for which the MIC is > 128 µg/mL.

Consider `C=CCOc1cccc(C(=O)Nc2ccc(Br)cc2C(=O)O)c1`, for which it took 8 µg/mL (≈ 21.3 µM) to inhibit growth (MIC).

With `COC(COc1ccc(C(=O)Nc2ccc(Br)cc2C(=O)O)cc1)c1ccccc1` (stereo not drawn), the MIC stood at 64 µg/mL (≈ 136 µM).

On to `Cc1oc(-c2ccccc2)nc1CCOc1cccc(C(=O)Nc2ccc(Br)cc2C(=O)O)c1`, for which the lowest concentration to inhibit growth (MIC) was 32 µg/mL (≈ 61.4 µM). On to `CSc1ccc(C(=O)Nc2ccc(C#N)cc2C(=O)O)cc1`, for which the minimal inhibitory concentration (MIC) was found to be 0.5 µg/mL (≈ 1.6 µM). Same read-out and setting: the figure for `O=C(Nc1ccc(-c2ccccn2)cc1C(=O)O)c1cccc(S(=O)(=O)N2CCc3cc(Cl)ccc32)c1` [PHA-563324] is > 128 µg/mL; for `O=C(Nc1ccc(Br)cc1C(=O)O)c1cccc(S(=O)(=O)N2CCN(c3cccc(C(F)(F)F)c3)CC2)c1` it is 16 µg/mL (≈ 26.1 µM).

Molecule `O=C(Nc1ccc(Br)cc1C(=O)O)c1ccc2c(c1)C(=O)N(CC1CCCO1)C2=O` (stereo not drawn) returned an MIC of 8 µg/mL (≈ 16.9 µM). Still for that read-out and setting: the figure for `O=C(Nc1ccc(Br)cc1C(=O)O)c1ccc(OC2CCOCC2)cc1` is 128 µg/mL (≈ 305 µM). Molecule `O=C(Nc1ccc(Br)cc1C(=O)O)c1cccc(NC(=S)Nc2cc(Cl)cc(Cl)c2)c1` [PHA-713396] yielded an MIC of 8 µg/mL (≈ 14.8 µM). `N#Cc1ccc(NC(=O)c2ccc3c(c2)S(=O)(=O)N(c2ccc(Cl)cc2)CC3)c(C(=O)O)c1` [PHA-562745] registered an MIC of 0.25 µg/mL (≈ 0.519 µM). With `O=C(Nc1ccc(Br)cc1C(=O)O)c1cc(S(=O)(=O)Nc2ccc(F)c(Cl)c2)c(F)cc1Cl`, the MIC is > 128 µg/mL.

`CCNS(=O)(=O)c1cccc(C(=O)Nc2ccc(Br)cc2C(=O)O)c1` displayed an MIC of 64 µg/mL (≈ 150 µM). Take `COc1ccc(C(=O)Nc2ccc(Br)cc2C(=O)O)cc1OC`: the MIC stood at 128 µg/mL (≈ 337 µM). This MIC is about 2-fold higher than that of the molecule before. Still for that read-out and setting: the figure for `CCC1CCCCN1S(=O)(=O)c1cccc(C(=O)Nc2ccc(C#N)cc2C(=O)O)c1` (stereo not drawn) [PHA-571263] is 16 µg/mL (≈ 36.2 µM). Molecule `O=C(Nc1ccc(Br)cc1C(=O)O)c1ccc(S(=O)(=O)Nc2ccccc2O)cc1` [PNU-291997] displayed an MIC of 1 µg/mL (≈ 2.04 µM).

Molecule `O=C(Nc1ccc(Cl)cc1C(=O)O)c1cccc(C(NCc2cccc(Cl)c2)c2ccccc2)c1` (stereo not drawn) returned an MIC of 16 µg/mL (≈ 31.7 µM). This MIC lies about 16-fold higher than the previous one.

`CC1CCCN(S(=O)(=O)c2ccc(C(=O)Nc3ccc(C#N)cc3C(=O)O)cc2)C1` (stereo not drawn) [PHA-571241] returned an MIC of 16 µg/mL (≈ 37.4 µM). The same measure, in the same setting: the figure for `CS(=O)(=O)c1cccc(C(=O)c2ccc(C(=O)Nc3ccc(Cl)cc3C(=O)O)cc2)c1` is 32 µg/mL (≈ 69.9 µM); for `N#Cc1ccc(NC(=O)c2ccc(S(=O)(=O)N3CCc4ccccc4C3)cc2)c(C(=O)O)c1` [PHA-571265] it is 16 µg/mL (≈ 34.7 µM); for `O=C(Nc1ccc(Br)cc1C(=O)O)c1cccc(NC(=O)c2sc3ccccc3c2Cl)c1` [PHA-713391] it is > 128 µg/mL. Same read-out and setting: the figure for `Cc1ccc(S(=O)(=O)Nc2ccc(C(=O)Nc3ccc(Br)cc3C(=O)O)cc2)cc1` is 16 µg/mL (≈ 32.7 µM); for `N#CCCN(Cc1ccccc1)S(=O)(=O)c1cccc(C(=O)Nc2ccc(C#N)cc2C(=O)O)c1` [PHA-571238] it is 128 µg/mL (≈ 262 µM). The same measure, in the same setting: the figure for `N#Cc1ccc(NC(=O)c2cccc(O)c2)c(C(=O)O)c1` is 32 µg/mL (≈ 113 µM); for `CN(c1ccc(Cl)cc1)S(=O)(=O)c1ccc(C(=O)Nc2ccc(Br)cc2C(=O)O)cc1` [PNU-276988] it is 16 µg/mL (≈ 30.5 µM); for `O=C(Nc1ccc(Br)cc1C(=O)O)c1cccc(NC(=S)Nc2ccccc2C(F)(F)F)c1` [PHA-713405] it is 128 µg/mL (≈ 238 µM). In turn, `O=C(Nc1cccc(C(=O)Nc2ccc(Br)cc2C(=O)O)c1)Nc1ccc(F)cc1F` [PHA-708989] returned an MIC of 8 µg/mL (≈ 16.3 µM). On the same count and under the same terms, the figure for `N#CC1(c2ccccc2)CCN(S(=O)(=O)c2ccc(C(=O)Nc3ccc(I)cc3C(=O)O)cc2)CC1` is 4 µg/mL (≈ 6.5 µM); for `O=C(Nc1ccc(Br)cc1C(=O)O)c1cc(C(F)(F)F)ccc1Cl` it is > 128 µg/mL.

The molecule `N#Cc1ccc(NC(=O)c2cccc(Cl)c2)c(C(=O)O)c1` [PHA-571155] registered an MIC of 32 µg/mL (≈ 106 µM). Take `CSc1cccc(NC(=O)Nc2cccc(C(=O)Nc3ccc(Br)cc3C(=O)O)c2)c1` [PHA-708992]: inhibition of growth (MIC) required 4 µg/mL (≈ 7.99 µM). Same read-out and setting: the figure for `O=C(Nc1ccc(I)cc1C(=O)O)c1ccc(F)cc1` [PNU-281164] is > 128 µg/mL; for `O=C(Nc1ccc(Oc2ccccc2)cc1)Nc1ccc(C(=O)Nc2ccc(Br)cc2C(=O)O)cc1` [PHA-713400] it is 16 µg/mL (≈ 29.3 µM); for `COc1cc(C(=O)Nc2ccc(C#N)cc2C(=O)O)ccc1C` it is > 128 µg/mL. For the molecule `COc1cc(COc2cccc(C(=O)Nc3ccc(Br)cc3C(=O)O)c2)ccc1[N+](=O)[O-]` [PHA-571282], 16 µg/mL (≈ 31.9 µM) was the least that counted as inhibitory (MIC). The molecule `CC(=O)c1ccc(C(=O)Nc2ccc(Br)cc2C(=O)O)cc1` [PHA-520446] gave an MIC of 16 µg/mL (≈ 44.2 µM). `O=C(Nc1ccc(Br)cc1C(=O)O)c1ccc(S(=O)(=O)n2ccc3cc(F)ccc32)cc1` [PNU-291129] came in with an MIC of 0.5 µg/mL (≈ 0.966 µM). This MIC is about 32-fold lower than that of the molecule before. Regarding `O=C(Nc1ccc(Cl)cc1C(=O)O)c1cccc(C(=NO)c2ccco2)c1` [drawing 1121], the “SA 9218 MIC” value turned out to be 8 µg/mL.

In turn, `O=C(Nc1ccc(Cl)cc1C(=O)O)c1ccc(I)cc1` came in with a minimum inhibitory concentration (MIC) of 2 µg/mL (≈ 4.98 µM).

The molecule `CC(C(O)c1ccccc1)N(C)S(=O)(=O)c1cccc(C(=O)Nc2ccc(C#N)cc2C(=O)O)c1` (stereo not drawn) [PHA-571226] gave an MIC of 64 µg/mL (≈ 130 µM). Against the preceding molecule, the MIC is about 32-fold higher. Still for that read-out and setting: the figure for `O=C(Nc1ccc(Br)cc1C(=O)O)c1cccc(C#Cc2ccccc2)c1` [PHA-526578] is 2 µg/mL (≈ 4.76 µM); for `O=C(Nc1ccc(Br)cc1C(=O)O)c1ccc(OCC2CCCC2)cc1` it is > 128 µg/mL; for `O=C(Nc1ccc(-c2ccc(Cl)cc2)cc1C(=O)O)c1cccc(S(=O)(=O)N2CCOCC2)c1` [PHA-656820] it is > 128 µg/mL. Consider `CCCCN(CC)S(=O)(=O)c1ccc(C(=O)Nc2ccc(C#N)cc2C(=O)O)cc1` [PHA-571214], for which the MIC came to 16 µg/mL (≈ 37.3 µM). For the molecule `Cc1noc(C)c1-c1ccc(NC(=O)c2cccc(S(=O)(=O)N3CCc4cc(Cl)ccc43)c2)c(C(=O)O)c1` [PHA-569977], the MIC was 16 µg/mL (≈ 29 µM).
